By IC50 is commonly meant the point on the concentration scale where inhibition reaches its midpoint. Read a high IC50 as lower potency.

Molecules are shown by their SMILES. Residues, ends and D or L forms follow the SMILES beside them.

For one data set, the system named is H22. The class given is cell-based. The conditions noted are these: 48 h. An excerpt: (§1) Liver cancer cells (HuH7, HepG2, and H22) and human liver cells (HL-7702) were obtained from the Cell Bank of the Chinese Academy of Sciences (Shanghai, China). Fresh L. japonica was acquired from the South China Agricultural University (Guangzhou, China) and identified by Professor C. Wang (South China Agricultural University, Guangzhou, China). The annexin V-FITC/PI staining assay kit and propidium iodide (PI) reagents were supplied by Beyotime (Shanghai, China). Dulbecco’s modified Eagle medium (DMEM), fetal bovine serum (FBS), and penicillin-streptomycin (PS) were purchased from Gibco BRL (Life Technologies, Grand Island, NY, USA). The antibodies used in the current study were acquired from Cell Signaling Technology, Inc. (Manchester, NH, USA). Cell lines were grown in specific medium supplemented with 10% FBS. Cells were grown in a humidified atmosphere with 5% CO2 in incubators maintained at 37 °C. Balb/c mice (6–8 weeks old, 20 ± 2 g) were acquired from the Guangdong Experimental Animal Center. Ab MTT assay was used to detect the cytotoxicity activity of LJPs in vitro [42]. Briefly, 5 × 10^3 cells/well were seeded in 96-well plates, and varying concentrations of LJP were added. After 48 h, the MTT solution (5 mg/mL) was added for an additional 4 h. The absorbance was measured at 570 nm using a microplate reader (Bio-Rad; Hercules, CA, USA) after 100 μL of DMSO was added. The IC^50 values were determined by the non-linear multipurpose curve-fitting program.

The next data set in a line: in vitro. Format: cell-based. The settings on record: human.
Description: as §1, with “Briefly, 5 × 10^3 cells/well were seeded in 96-well plates, and varying concentrations of LJP were added. After 48 h, the MTT solution (5 mg/mL) was added for an additional 4 h.” left out

The next data set deals with HepG2. Format: cell-based, human. The conditions noted are these: 48 h.
Description: as §1

Another data set deals with HuH7. Format: cell-based, human. The settings on record: 48 h.
Description: as §1

With `CC(C)C[C@H](NC(=O)[C@H](Cc1c[nH]cn1)NC(=O)[C@H](Cc1ccccc1)NC(=O)CNC(=O)[C@@H](N)CCC(=O)O)C(=O)O` [LJP-1] (H-EGFHL-OH), the IC50 in the data set on H22 came out at 360 ± 30 µM; in the data set with HepG2, 450 ± 50 µM; with HuH7, 480 ± 50 µM. In “in vitro”, this compound gave an IC50 at 48 h of 7760 ± 710 µM.

With `CC(C)C[C@H](N)C(=O)N[C@@H](Cc1c[nH]c2ccccc12)C(=O)N[C@@H](CCC(=O)O)C(=O)N[C@@H](Cc1c[nH]cn1)C(=O)N[C@@H](CO)C(=O)N[C@@H](Cc1c[nH]cn1)C(=O)O` [LJP-2] (H-LWEHSH-OH), the IC50 in the data set with H22 stood at 620 ± 50 µM; in the data set with HepG2 it was 1710 ± 130 µM; in the data set on HuH7, 2250 ± 220 µM.

With `N=C(N)NCCC[C@H](NC(=O)[C@H](Cc1c[nH]cn1)NC(=O)[C@H](CO)NC(=O)[C@@H](N)Cc1ccccc1)C(=O)NCC(=O)N[C@@H](Cc1c[nH]cn1)C(=O)O` [LJP-3] (H-FSHRGH-OH), the figures for the IC50 in the data set on H22, in the data set with HepG2 and with HuH7 were 1700 ± 150 µM, over 4000 µM and 1420 ± 120 µM, respectively.

Turning to `N[C@@H](CCC(=O)O)C(=O)NCC(=O)N[C@@H](Cc1c[nH]cn1)C(=O)NCC(=O)N[C@@H](Cc1ccccc1)C(=O)O` [LJP-4] (H-EGHGF-OH), the concentration for half-maximal inhibition (IC50) with H22 turned out to be 680 ± 70 µM; in the data set with HepG2 it was 650 ± 70 µM; with HuH7, 620 ± 70 µM.

On to `C[C@@H](O)[C@H](NC(=O)[C@H](CO)NC(=O)[C@@H](N)Cc1ccccc1)C(=O)N[C@@H](Cc1c[nH]cn1)C(=O)NCC(=O)NCC(=O)O` [LJP-5] (H-FSTHGG-OH), for which the results for the IC50 with H22, with HepG2 and in the data set with HuH7 were 1490 ± 130 µM, 2780 ± 260 µM and 2440 ± 220 µM, respectively.

For `NCCCC[C@H](NC(=O)[C@@H](N)Cc1ccccc1)C(=O)N[C@@H](CCC(=O)O)C(=O)N[C@@H](Cc1c[nH]cn1)C(=O)NCC(=O)N[C@@H](Cc1ccc(O)cc1)C(=O)O` [LJP-6] (H-FKEHGY-OH), the IC50 with H22 was over 4000 µM; in the data set with HepG2 it was 3060 ± 310 µM; with HuH7, over 4000 µM.

Take `C[C@H](NC(=O)[C@H](Cc1c[nH]c2ccccc12)NC(=O)[C@H](CO)NC(=O)[C@H](Cc1ccc(O)cc1)NC(=O)CNC(=O)[C@H](C)NC(=O)[C@@H](N)Cc1c[nH]cn1)C(=O)O` [LJP-7] (H-HAGYSWA-OH): the results for the IC50 with H22, in the data set with HepG2 and in the data set with HuH7 were 1440 ± 120 µM, 1660 ± 110 µM and 2530 ± 240 µM, respectively.

Consider `CC(C)[C@H](NC(=O)[C@H](Cc1ccc(O)cc1)NC(=O)[C@@H](NC(=O)[C@H](Cc1c[nH]cn1)NC(=O)[C@H](CO)NC(=O)[C@@H](N)Cc1ccccc1)[C@@H](C)O)C(=O)O` [LJP-8] (H-FSHTYV-OH), for which the half-inhibitory concentration (IC50) in the data set with H22 is 760 ± 80 µM; in the data set on HepG2 it was 630 ± 50 µM; with HuH7 it was 440 ± 40 µM.

For `N[C@@H](Cc1ccccc1)C(=O)N[C@@H](CCC(=O)O)C(=O)N[C@@H](Cc1c[nH]cn1)C(=O)N[C@@H](CO)C(=O)NCC(=O)O` [LJP-9] (H-FEHSG-OH), the IC50 was 510 ± 70 µM in the data set with H22, 690 ± 80 µM with HepG2 and 530 ± 50 µM in the data set with HuH7.

`C[C@H](NC(=O)[C@@H](N)Cc1c[nH]cn1)C(=O)N[C@@H](CO)C(=O)N[C@@H](Cc1c[nH]c2ccccc12)C(=O)N[C@@H](CCC(=O)O)C(=O)N[C@@H](Cc1c[nH]cn1)C(=O)O` [LJP-10] (H-HASWEH-OH): the IC50 with H22 stood at 3530 ± 340 µM; in the data set with HepG2 it was 2690 ± 220 µM; in the data set on HuH7 it was 3520 ± 350 µM.

For `N[C@@H](Cc1ccc(O)cc1)C(=O)N[C@@H](CCC(=O)O)C(=O)N[C@@H](Cc1c[nH]cn1)C(=O)N[C@@H](CO)C(=O)N[C@@H](Cc1c[nH]cn1)C(=O)NCC(=O)O` [LJP-11] (H-YEHSHG-OH), the IC50 with H22 is 700 ± 70 µM; with HepG2, 610 ± 70 µM; in the data set with HuH7, 490 ± 50 µM.

In the case of `C[C@@H](O)[C@H](N)C(=O)N[C@@H](Cc1ccccc1)C(=O)N[C@@H](CCCCN)C(=O)N[C@@H](Cc1c[nH]cn1)C(=O)NCC(=O)O` [LJP-12] (H-TFKHG-OH), the IC50 in the data set with H22 was determined as 720 ± 50 µM; in the data set with HepG2, 600 ± 80 µM; in the data set with HuH7, 410 ± 40 µM.
